Assays:
[1] = system: MC3T3-E1 cells; test: Proliferation assay (WST-1); assay type: cell-based; conditions: 1% FBS
Protocol: Proliferation assay. MG63 cells were treated with various concentrations of rTMD23 for 1, 4, 7 days. The medium was replaced every 2-3 days. At the end, the amount of living cells in each well was measured with crystal violet assay. The cells in each well were washed by PBS twice right before staining. Crystal violet (0.5%, 300 μL) were added in each well for 15 min, followed by ddH2O rinse at least five times. Acetic acid (10%, 300 μL) were added to dissolute the crystal violet. Then, taking 100 μL/well into a 96 well plate to get an OD595 measurement. A proliferation assay on MC3T3-E1 cells with various concentrations of a variant of TMD23 was performed. Briefly, MC3T3-E1 cells in 96-well plates were treated with rTMD23NA at various concentrations for 1, 3, 5 days. The number of living cells in each well was measured with WST-1 reagent. The cells in each well were washed by DMEM medium twice right before staining with 100 μL of 10% WST-1 in DMEM. The absorption at A450 nm-A690 nm of each well was measured.
Human osteoblast-like cell line MG63 and osteoblast cell line MC3T3-E1 were used in the cell proliferation assay. Briefly, different concentrations of rTMD23 and rTMD23NA, which is a variant form of rTMD23, were respectively added to MG63 or MC3T3-E1 cell culture containing 1% FBS. […] The OD595 of the cell lysate in 10% acetic acid was measured to obtain the relative cell count in each well.

[2] = system: protein C; conditions: cited from earlier work
[3] = system: mice; test: Calvarial bone defect healing with DCI treatment (μCT, H&E); assay type: in vivo, mouse; conditions: DCI alone
Protocol: FIGS. 8A-F show the effect of the TMD1 and TMD23 on calvarial bone healing. (8A) Cell migration, (8B) proliferation and (8C) mineralization of MG63 cells treated with the indicated dose of rTMD1. (8D) Calvarial bone healing of TM wild-type TM^wt/wt and TM domain 1 (TMD1)-deleted TM^LeD/LeD mice. (8E) μCT scanning and (8F) HE stain were used to evaluate the effect of vehicle, dichloroisocoumarin (DCI) and DCI plus rTMD23 or rTMD1 (100 μg/kg) on bone healing after a calvarial defect was created in mice. N=5 per group. Black bar=100 μm. White bar=1 mm. Dotted line indicates the section region. ***P<0.001.
Calvarial bone defect healing. Male mice were randomly assigned to designated groups. After anesthesia, a 4 mm-diameter defect on the calvaria was created and the wound was sutured. A combination of dichloroisocoumarin (DCI) (1 mM) or rTMD23 (0, 10, 100 μg/kg) and U0126 (20 μM) was subcutaneously injected once near the calvarial bone opening at week 1 after the surgery. Bone healing was monitored radiographically using μCT (Skyscan 1076, Antwerp, Belgium) and histologically at indicated time points (weeks 0 and 8) after the surgery. […] The quantification of the removed and regenerated bone volume (mm^3) performed by a 3D CT analyzer software (CTAN; Skyscan). […]

Compound | cell proliferation (absorbance, WST-1) [1] | protein C activation activity [2] | regeneration of calvarial bone defect (μCT and H&E) [3]
rTMD23NA: recombinant TMD23 variant with two substitutions Asn364Ala and Asn391Ala, SEQ ID NO: 3 (274aa) | enhance cell proliferation | little or no protein C activation activity | 
O=c1oc(Cl)c(Cl)c2ccccc12 [DCI, dichloroisocoumarin] |  |  | reduced regeneration of calvarial bone defect

Source: US20230000955A1, “THROMBOMODULIN FUNCTIONAL DOMAINS FOR USE IN PROMOTING OSTEOBLAST FUNCTIONS AND BONE HEALING” (BLUE BLOOD BIOTECH CORP., priority 2019, published 2023)
